Experiments:
human-Arginase-1 = biological target: T1, human-Arginase-1 (Homo sapiens, UniProt P05089); experiment: Urea production in CHOK cells stably transfected with human-Arginase-1; format: cell-based; conditions: IC50 class, 5 mM arginine, 24 hours, read-out: CHOK Cell
T1 construct: expressed in transfected cells; host or cells: CHOK cells
T1 sequence (P05089 1-322): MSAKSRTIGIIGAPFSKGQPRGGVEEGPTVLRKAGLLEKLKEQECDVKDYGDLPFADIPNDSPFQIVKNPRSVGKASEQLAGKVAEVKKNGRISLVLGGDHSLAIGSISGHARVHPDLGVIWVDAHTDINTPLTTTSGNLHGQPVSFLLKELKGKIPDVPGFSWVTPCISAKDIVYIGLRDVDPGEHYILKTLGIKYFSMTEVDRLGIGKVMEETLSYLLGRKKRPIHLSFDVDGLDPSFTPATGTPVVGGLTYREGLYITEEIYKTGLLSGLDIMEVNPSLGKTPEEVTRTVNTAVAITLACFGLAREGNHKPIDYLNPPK
Experimental: Table 3 also provides CHOK cell based IC50 values for illustrative arginase inhibitors. IC50 values were determined by measuring the production of urea in CHOK cells stably transfected with human-Arginase-1.
Briefly, CHOK cells were stably transfected with human-arginase-1. To determiner the IC50 values for compounds in accordance with the present invention, parental CHOK cells and arginase-1 stably transfected cells were plated in a 96 well plate. Cells were plated using 200 μl of complete growth medium and incubated overnight at 37° C.
Media from each of the wells containing cells was first removed and growth media supplemented with arginine at a concentration of 5 mM was added to each well. The test compounds were dissolved in PBS buffer to the desired concentration and added to appropriate wells. The plate was then incubated at 37° C. for 24 hours. After 24 hours the plates were spun down at 3000 RPM for 5 min and 50 μl of the media were transferred to a new plate.
An aqueous solution of o-phthaldehyde, Brij, sulfuric acid, primaquine diphosphate and boric acid was added to each well and the plate was incubated for 10-15 minutes. The urea concentration in each well was determined by measuring the optical density at 520-530 nanometers using a standard curve. The IC50 values were calculated by measuring urea production at various concentrations of the inventive arginase inhibitors after subtracting the value related to the concentration of urea in control wells.

human arginase I (ARG I) = biological target: T2, human arginase I (ARG I) (Homo sapiens, UniProt P05089); experiment: Inhibition of arginase I, spectrophotometric urea assay at 530 nm
T2 sequence (P05089 1-322): T1 sequence (P05089 1-322)
Experimental: (§1) Inhibition of arginase I (ARG I) and arginase II (ARG II) by the inventive compounds is followed spectrophotometrically at 530 nm. […] Solutions of arginase I and II are prepared in 100 mM sodium phosphate buffer, pH 7.4 containing 1 mg/ml of OVA to give an arginase stock solution at a final concentration of 100 ng/ml.
(§2) To each well of a 96-well microtiter plate is add 40 μl of enzyme, 10 μl of an inventive compound and 10 μl of enzyme substrate (L-arginine+ manganese sulfate). For wells that are used as positive controls, only the enzyme and its substrate are added, while wells used as negative controls contain only manganese sulfate.
(§3) After incubating the microtiter plate at 37° C. for 60 minutes, 150 μl of a urea reagent obtained by combining equal proportions (1:1) of reagents A and B is added to each well of the microtiter plate to stop the reaction. The urea reagent is made just before use by combining Reagent A (10 mM o-phthaldialdehyde, and 0.4% polyoxyethylene (23) lauryl ether (w/v) in 1.8 M sulfuric acid) with Reagent B (1.3 mM primaquine diphosphate, 0.4% polyoxyethylene (23) lauryl ether (w/v), 130 mM boric acid in 3.6 M sulfuric acid). After quenching the reaction mixture, the microtiter plate is allowed to stand for an additional 10 minutes at room temperature to allow color development. […] The normalized OD is then used to generate a dose-response curve by plotting the normalized OD values against log [concentration] and using regression analysis to compute the IC50 values.

arginase II (ARG II) = biological target: T3, arginase II (ARG II) (Homo sapiens, UniProt P78540); experiment: Inhibition of arginase II, spectrophotometric urea assay at 530 nm
T3 sequence (P78540 23-354): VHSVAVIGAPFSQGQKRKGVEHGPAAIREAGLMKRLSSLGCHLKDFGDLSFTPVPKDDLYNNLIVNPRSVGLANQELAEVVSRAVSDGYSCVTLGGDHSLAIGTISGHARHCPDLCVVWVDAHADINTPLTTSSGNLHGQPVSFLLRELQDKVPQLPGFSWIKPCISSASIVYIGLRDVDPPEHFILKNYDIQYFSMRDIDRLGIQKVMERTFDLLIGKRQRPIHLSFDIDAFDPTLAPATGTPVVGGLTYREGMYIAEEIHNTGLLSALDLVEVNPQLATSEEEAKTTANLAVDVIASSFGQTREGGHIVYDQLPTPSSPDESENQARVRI
Experimental: as §1, §2, §3

| SMILES | IC50 (human-Arginase-1) | IC50 (human arginase I (ARG I)) | IC50 (arginase II (ARG II)) |
| --- | --- | --- | --- |
| NC(CCCCB(O)O)(C(=O)O)[C@H]1C[C@@H](NC2CCC(c3ccccc3)CC2)C1 (mixture of isomers) [Example 47, (S)-2-amino-6-borono-2-((1s,3R)-3-(4-phenylcyclohexylamino)cyclobutyl)hexanoic acid] | 26000 to 100000 nM | 26 to 100 nM | 0.1 to 25 nM |
| NC(CCCCB(O)O)(C(=O)O)[C@H]1C[C@@H](NCc2cccc(-c3ccccc3)c2F)C1 (mixture of isomers) [Example 48, (S)-2-amino-6-borono-2-((1s,3R)-3-((2-fluorobiphenyl-3-yl)methylamino)cyclobutyl)hexanoic acid] | 26000 to 100000 nM | 26 to 100 nM | 0.1 to 25 nM |
| NC(CCCCB(O)O)(C(=O)O)[C@H]1C[C@@H](NCc2ccc(-c3ccc(Cl)cc3)c(F)c2F)C1 (mixture of isomers) [Example 50, (S)-2-amino-6-borono-2-((1s,3R)-3-((4′-chloro-2,3-difluorobiphenyl-4-yl)methylamino)cyclobutyl)hexanoic acid] | 1000 to 25000 nM | 0.1 to 25 nM | 26 to 100 nM |
| NC(CCCCB(O)O)(C(=O)O)[C@H]1C[C@@H](NCc2ccc(-c3ccc(Cl)cc3)c(F)c2)C1 (mixture of isomers) [Example 51, (S)-2-amino-6-borono-2-((1s,3R)-3-((4′-chloro-2-fluorobiphenyl-4-yl)methylamino)cyclobutyl)hexanoic acid] | 26000 to 100000 nM | 26 to 100 nM | 0.1 to 25 nM |
| NC(CCCCB(O)O)(C(=O)O)[C@H]1C[C@@H](NCC2CCN(c3ccc(C(=O)O)cc3)CC2)C1 (mixture of isomers) [Example 59, 4-(4-(((1R,3s)-3-((S)-1-amino-5-borono-1-carboxypentyl)cyclobutylamino)methyl)piperidin-1-yl)benzoic acid] |  | 26 to 100 nM | 26 to 100 nM |
| NC(CCCCB(O)O)(C(=O)O)[C@H]1C[C@H](N(Cc2ccccc2)Cc2ccccc2)C1 (relative stereo) [Example 28, (S)-2-amino-6-borono-2-((1r,3S)-3-(dibenzylamino)cyclobutyl)hexanoic acid] |  | > 1500 nM | > 1500 nM |
| NC(CCCCB(O)O)(C(=O)O)[C@H]1C[C@@H](NCCCc2ccccc2)C1 (stereo partly drawn) [Example 1, (S)-2-amino-6-borono-2-((1s,3R)-3-(3-phenylpropylamino)cyclobutyl) hexanoic acid] |  |  | 26 to 100 nM |
| NC(CCCCB(O)O)(C(=O)O)[C@H]1C[C@@H](NCCCc2cc(F)cc(Cl)c2)C1 (stereo partly drawn) [Example 2, (S)-2-amino-6-borono-2-((1s,3R)-3-(3-(3-chloro-5-fluorophenyl)propylamino)cyclobutyl)hexanoic acid] |  | 26 to 100 nM | 0.1 to 25 nM |
| NC(CCCCB(O)O)(C(=O)O)[C@H]1C[C@@H](NCCc2ccc(F)c(F)c2)C1 (stereo partly drawn) [Example 3, (S)-2-amino-6-borono-2-((1s,3R)-3-(3,4-difluorophenethylamino)cyclobutyl)hexanoic acid] |  | 26 to 100 nM | 26 to 100 nM |
| NC(CCCCB(O)O)(C(=O)O)[C@H]1C[C@@H](NCCc2ccc(Cl)cc2Cl)C1 (stereo partly drawn) [Example 4, (S)-2-amino-6-borono-2-((1s,3R)-3-(2,4-dichlorophenethylamino)cyclobutyl)hexanoic acid] |  | 26 to 100 nM | 26 to 100 nM |
| NC(CCCCB(O)O)(C(=O)O)[C@H]1C[C@@H](NCc2cccc(-c3ccccc3)c2)C1 (stereo partly drawn) [Example 7, (S)-2-amino-2-((1s,3R)-3-(biphenyl-3-ylmethylamino)cyclobutyl)-6-boronohexanoic acid] |  | 26 to 100 nM | 26 to 100 nM |
| NC(CCCCB(O)O)(C(=O)O)[C@H]1C[C@@H](NC[C@@H]2Cc3ccccc3CN2)C1 (stereo partly drawn) [Example 14, (S)-2-amino-6-borono-2-((1R,3R)-3-(((S)-1,2,3,4-tetrahydroisoquinolin-3-yl)methylamino)cyclobutyl)hexanoic acid] |  | 26 to 100 nM | 26 to 100 nM |
| NC(CCCCB(O)O)(C(=O)O)[C@H]1C[C@@H](NCc2ccc(O)cc2)C1 (stereo partly drawn) [Example 20, (S)-2-amino-6-borono-2-((1s,3R)-3-(4-hydroxybenzylamino)cyclobutyl)hexanoic acid] |  | 26 to 100 nM | 26 to 100 nM |
| NC(CCCCB(O)O)(C(=O)O)[C@H]1C[C@@H](N2Cc3ccccc3C2)C1 (stereo partly drawn) [Example 29, 2-amino-6-borono-2-((1s,3R)-3-(isoindolin-2-yl)cyclobutyl)hexanoic acid] |  | 101 to 500 nM | 101 to 500 nM |
| CNC(CCCCB(O)O)(CCN1CCc2c(Cl)cccc2C1)C(=O)O (stereo not shown) [Example 31, 6-borono-2-(2-(5-chloro-3,4-dihydroisoquinolin-2(1H)-yl)ethyl)-2-(methylamino)hexanoic acid] |  | 101 to 500 nM | 101 to 500 nM |
| CNC(CCCCB(O)O)(CCN1CCc2ccccc2C1)C(=O)O (stereo not shown) [Example 32, 6-borono-2-(2-(3,4-dihydroisoquinolin-2(1H)-yl)ethyl)-2-(methylamino)hexanoic acid] |  | 101 to 500 nM | 101 to 500 nM |
| CNC(CCCCB(O)O)(CCN1CCC(C)(C)CC1)C(=O)O (stereo not shown) [Example 34, 6-borono-2-(2-(4,4-dimethylpiperidin-1-yl)ethyl)-2-(methylamino)hexanoic acid] |  | 101 to 500 nM | 101 to 500 nM |
| CNC(CCCCB(O)O)(CCN1CCC(c2ccc(Cl)cc2)CC1)C(=O)O (stereo not shown) [Example 37, 6-borono-2-(2-(4-(4-chlorophenyl)piperidin-1-yl)ethyl)-2-(methylamino)hexanoic acid] |  | 101 to 500 nM | 101 to 500 nM |
| NC(CCCCB(O)O)(CCCN1CCCC1)C(=O)O (stereo not shown) [Example 38, 2-amino-6-borono-2-(3-(pyrrolidin-1-yl)propyl)hexanoic acid] |  | 101 to 500 nM | 101 to 500 nM |
| NC(CCCCB(O)O)(C(=O)O)[C@@H]1CC[C@H](NCc2ccc(-c3ccccc3)cc2)C1 (stereo partly shown) [Example 42] |  | 26 to 100 nM | 26 to 100 nM |
| NC(CCCCB(O)O)(C(=O)O)[C@H]1C[C@@H](NCCc2ccc(-c3ccccc3)cc2)C1 (stereo partly drawn) [Example 65, (S)-2-amino-2-((1s,3R)-3-(2-(biphenyl-4-yl)ethylamino)cyclobutyl)-6-boronohexanoic acid] |  | 26 to 100 nM | 0.1 to 25 nM |
| N[C@](CCCCB(O)O)(CCNC1Cc2ccccc2C1)C(=O)O [Example 66, (R)-2-amino-6-borono-2-(2-(2,3-dihydro-1H-inden-2-ylamino)ethyl)hexanoic acid] |  | 101 to 500 nM | 101 to 500 nM |
| CCCN(C)CC[C@](N)(CCCCB(O)O)C(=O)O [Example 69, (R)-2-amino-6-borono-2-(2-(methyl(propyl)amino)ethyl)hexanoic acid] |  | 101 to 500 nM | 101 to 500 nM |
| CC(C)NCC[C@](N)(CCCCB(O)O)C(=O)O [Example 70, (R)-2-amino-6-borono-2-(2-(isopropylamino)ethyl)hexanoic acid] |  | 26 to 100 nM | 101 to 500 nM |
| CC(C)CNCC[C@](N)(CCCCB(O)O)C(=O)O [Example 71, (R)-2-amino-6-borono-2-(2-(isobutylamino)ethyl)hexanoic acid] |  | 101 to 500 nM | 101 to 500 nM |
| N[C@](CCCCB(O)O)(CCN1Cc2ccccc2C1)C(=O)O [Example 72, (R)-2-amino-6-borono-2-(2-(isoindolin-2-yl)ethyl)hexanoic acid] |  | 101 to 500 nM | 501 to 1500 nM |
| NC1(c2ccc(Cl)cc2)CC(C(N)(CCCCB(O)O)C(=O)O)C1 (stereo not shown) [Example 73, 2-amino-2-(3-amino-3-(4-chlorophenyl)cyclobutyl)-6-boronohexanoic acid] |  | 501 to 1500 nM | 101 to 500 nM |
| NC1(Cc2ccc(Cl)cc2)CC(C(N)(CCCCB(O)O)C(=O)O)C1 (stereo not shown) [Example 74, 2-amino-2-(3-amino-3-(4-chlorobenzyl)cyclobutyl)-6-boronohexanoic acid] |  | 101 to 500 nM | 101 to 500 nM |
| CNC(CCCCB(O)O)(C(=O)O)[C@H]1C[C@@H](N)C1 (stereo partly drawn) [Example 75, (S)-2-((1s,3R)-3-aminocyclobutyl)-6-borono-2-(methylamino)hexanoic acid] |  | 101 to 500 nM | 101 to 500 nM |

Source: US9266908B2, “Inhibitors of arginase and their therapeutic applications” (MARS, INCORPORATED, priority 2011, dated 2016)
